This is an account of results in ChEMBL document CHEMBL1914297, “Regulators of G protein signaling (RGS) proteins as drug targets: modulating G-protein-coupled receptor (GPCR) signal transduction” (J Med Chem, 2011).

Where a SMILES comes first, the peptide text is derived from it. Bridges are numbered along the chain shown (N, C = ends).

Test [1] deals with Regulator of G-protein signaling 4 (Homo sapiens) (UniProt P49798). Put plainly: Inhibition of RGS4 GTPase accelrating activity.
For test [2], the species on record is Homo sapiens. As to the kind of experiment: Selectivity ratio of IC50 for human RGS4 expressed in Escherichia coli BL21 (DE3) to IC50 for human RGS8 expressed in Escherichia coli BL21 (DE3).
Test [3] is filed under the species Homo sapiens. As to the kind of experiment: Selectivity ratio of IC50 for human RGS4 expressed in Escherichia coli BL21 (DE3) to IC50 for human RGS16 expressed in Escherichia coli BL21 (DE3).
A short description of test [4]: Selectivity for RGS4 over RGS8.
Test [5] can be described thus: Selectivity for RGS4 over RGS16.

Regulator of G-protein signaling 4 (Homo sapiens), sequence (P49798 whole entry, looked up): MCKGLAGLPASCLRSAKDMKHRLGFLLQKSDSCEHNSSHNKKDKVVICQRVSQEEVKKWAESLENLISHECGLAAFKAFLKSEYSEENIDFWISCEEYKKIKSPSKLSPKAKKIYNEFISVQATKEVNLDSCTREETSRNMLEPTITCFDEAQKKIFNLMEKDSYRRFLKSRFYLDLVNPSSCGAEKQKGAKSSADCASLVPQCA

With `CC[C@H](C)[C@@H]1NC(=O)CNC(=O)[C@H]([C@@H](C)O)NC(=O)[C@@H](NC(=O)[C@H](CCCCN)NC(=O)[C@@H](NC(C)=O)C(C)C)CSSC[C@@H](C(=O)N[C@@H](CCC(=O)O)C(N)=O)NC1=O` (Ac-VKCTGICE-NH2; disulfide 3-7), in test [1], the INH was 26 µM. Take `Cc1cccc(Oc2nc3c(C)cccn3c(=O)c2/C=C(\C#N)c2nc3ccccc3s2)c1`: the Ratio IC50 in the test listed under Homo sapiens [2] and in the test filed under Homo sapiens [3] was 10 each time.

`Cc1ccc(-n2sc(=O)n(Cc3ccc(F)cc3)c2=O)cc1`: the Selectivity ratio in test [4] and in test [5] was 100 each time.

In the case of `Cc1cccn2c(=O)c(/C=C(\C#N)c3nc4ccccc4s3)c(Oc3ccc(F)cc3)nc12`, the Ratio IC50 in the test listed under Homo sapiens [2] and in the test filed under Homo sapiens [3] was 10 throughout.
